Experimental data from PubChem BioAssay AID1552 (Sanford-Burnham Center for Chemical Genomics, 2009).
Activity calls are given as the source filed them. No rule for the calls is given here.

molecular target: Ubiquitin-conjugating enzyme E2 N (Homo sapiens) (UniProt P61088); experiment: UBE2N binders by NMR, biophysical, purified protein (AID 1552); conditions: NMR binding to purified UBE2N
Sequence (P61088 whole entry, looked up): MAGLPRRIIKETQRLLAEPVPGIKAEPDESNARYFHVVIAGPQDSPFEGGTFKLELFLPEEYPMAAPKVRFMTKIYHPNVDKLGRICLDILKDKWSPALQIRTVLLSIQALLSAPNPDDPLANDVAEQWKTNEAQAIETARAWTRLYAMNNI

SMILES | Kd
CN1CCN(c2nc3c(c(=O)[nH]2)CCCC3)CC1 | > 4 mM (inactive)
O=C(O)c1ccc2ncccc2c1 | > 4 mM (inactive)
O=C1C2CCCCC2C(=O)N1Cc1cccnc1 (configuration not stated) | > 4 mM (inactive)
c1ccc(CCNc2ncnc3nc[nH]c23)cc1 | > 4 mM (inactive)
CCCS(=O)(=O)N1CCN(c2ccccc2F)CC1 | > 4 mM (inactive)
Cc1cc(C)n(-c2nc(N)cc(=O)[nH]2)n1 | > 4 mM (inactive)
Cn1nnc2cc(C(=O)N3CCSCC3)ccc21 | > 4 mM (inactive)
O=C(Cc1c(F)cccc1Cl)Nc1ccncc1 | > 4 mM (inactive)
Cc1cc2cc(N)ccc2[nH]1 | > 4 mM (inactive)
OCC1CCN(Cc2ccccc2)CC1 | > 4 mM (inactive)
Cc1nc2ccc(F)cc2cc1C(=O)NCc1ccco1 | > 4 mM (inactive)
O=C(Nc1ccc(-c2nnco2)cc1)c1ccccc1 | > 4 mM (inactive)
CCOC(=O)c1c(C)nc2ncccn12 | > 4 mM (inactive)
O=C(Nc1ccccc1)C(=O)NC1CC1 | > 4 mM (inactive)
C/C=C(\C)C(=O)OC1[C@@H]2C=C3C(CC[C@]4(C)C3CC(=O)O[C@H]4c3ccoc3)C(C)(C2=O)[C@@H](C(O)C(=O)OC)C1(C)C (some centres not stated) | > 4 mM (inactive)
OC1CCCN(Cc2ccccc2)C1 (configuration not stated) | > 4 mM (inactive)
CC(=O)NN1C(=O)c2cccc3cccc(c23)C1=O | > 4 mM (inactive)
NC(=O)Cn1cnc2ccccc21 | > 4 mM (inactive)
Cc1cc(SCC(=O)Nc2nccs2)nc(=O)[nH]1 | > 4 mM (inactive)
CCn1cnc2sc(C(=O)O)c(C)c2c1=O | > 4 mM (inactive)
CCN=Cc1c(O)n(-c2ccccc2C)c(=O)[nH]c1=O | > 4 mM (inactive)
Cc1onc(-c2c(F)cccc2Cl)c1C(N)=O | > 4 mM (inactive)
O=C1C2CCCCC2C(=O)N1c1ccc(O)cc1 (configuration not stated) | > 4 mM (inactive)
CC(=O)O[C@]1(C)CC[C@@]23CC1C(C)(C)[C@@H]2CC[C@H]3C | > 4 mM (inactive)
O=C(NCc1cccs1)c1nc2ncccn2n1 | > 4 mM (inactive)

SMILES | Kd
Cc1nnc(Nc2ccc(S(N)(=O)=O)cc2)[nH]c1=O | > 4 mM (inactive)
O=C(O)Cc1n[nH]c(=O)c2ccccc12 | > 4 mM (inactive)
Cn1c(SCC(N)=O)nnc1-c1c[nH]c2ccccc12 | > 4 mM (inactive)
Cc1scc(C(=O)Nc2ccon2)c1-c1ccccc1 | > 4 mM (inactive)
COC(=O)Cn1c2ccccc2c2nc(C)sc21 | > 4 mM (inactive)
NS(=O)(=O)c1ccc(N=Cc2cccs2)cc1 | > 4 mM (inactive)
COc1ccc(/C=C2/SC(N)=NC2=O)c(OC)c1 | > 4 mM (inactive)
COC(=O)c1ccc(NC(=O)CC2NCCNC2=O)cc1 (configuration not stated) | > 4 mM (inactive)
Cc1ccc(CN2CCNC(=O)C2CC(=O)O)o1 (configuration not stated) | > 4 mM (inactive)
Cc1nc2ccccc2c(=O)n1NC(=O)Nc1ccccc1 | > 4 mM (inactive)
CCNC(CC(=O)Nc1ccc(F)cc1)C(=O)O (configuration not stated) | > 4 mM (inactive)
Cn1c(=O)c2[nH]cnc2n(C)c1=O | > 4 mM (inactive)
Cc1ccc(CN2CCN(C(=O)C3CCC3)CC2)cc1 | > 4 mM (inactive)
O=C(Nn1cnnc1)c1cc2c(s1)CCCC2 | > 4 mM (inactive)
Cc1ccc(C(=O)CS(C)(=O)=O)cc1 | > 4 mM (inactive)
O=C(/C=C/c1ccc(O)c(O)c1)O[C@@H]1C[C@](O)(C(=O)O)C[C@@H](O)[C@H]1O | > 4 mM (inactive)
COc1cc2c(cc1O)[C@@H](Cc1ccc(O)cc1)[N+](C)(C)CC2 | > 4 mM (inactive)
Cc1ccc(NC(=O)CN2C(=O)CSC2=O)cc1 | > 4 mM (inactive)
CCCc1ncc(C(O)c2cccc3ccccc23)n1C (configuration not stated) | > 4 mM (inactive)
O=C(CS(=O)(=O)c1ccccc1)N1CCCCCC1 | > 4 mM (inactive)
O=C(NN1C(=O)CSC1=S)c1ccccc1 | > 4 mM (inactive)
NC(=O)Nc1cccc(C(F)(F)F)c1 | > 4 mM (inactive)
COc1cc(/C=C2\SC(=S)NC2=O)ccc1O | > 4 mM (inactive)
CC(C(N)=O)N1C(=O)c2ccccc2C1=O (configuration not stated) | > 4 mM (inactive)
Brc1cccc(-c2nnco2)c1 | > 4 mM (inactive)

SMILES | Kd
Cc1ccc(SCc2cc(=O)n3[nH]c(C)nc3n2)cc1 | > 4 mM (inactive)
c1cncc(-c2nnc(-c3cccnc3)nn2)c1 | > 4 mM (inactive)
CC(C)CCCC(C)[C@H]1CCC2C3CC[C@H]4CC(=O)CC[C@]4(C)C3CC[C@@]21C (some centres not stated) | > 4 mM (inactive)
CN1CCC(NC(=O)c2c(F)cccc2Cl)CC1 | > 4 mM (inactive)
O=C(O)CCCN1CNC(=S)NC1 | > 4 mM (inactive)
OC(c1ccccc1)c1ccccn1 (configuration not stated) | > 4 mM (inactive)
C=C[C@@](C)(O)CCC1C(=C)C[C@H](O)C2C(C)(C)CCCC12C (some centres not stated) | > 4 mM (inactive)
O=C(O)CC1C(=O)NCCN1Cc1ccccc1 (configuration not stated) | > 4 mM (inactive)
Cc1cc(=O)oc2c1c(C)nn2CN1CCN(C)CC1 | > 4 mM (inactive)
CCNC(CC(=O)Nc1ccc(O)cc1)C(=O)O (configuration not stated) | > 4 mM (inactive)
C=C[C@@]1(C)CC(=O)[C@@]2(O)[C@](C)(O1)[C@@H](OC(C)=O)[C@@H](O)C1C(C)(C)CC[C@H](O)[C@@]12C (some centres not stated) | > 4 mM (inactive)
Cc1ccc(-c2nn(C)c(=O)c3ccccc23)cc1CO | > 4 mM (inactive)
OC[C@@H](O)[C@@H](O[C@@H]1O[C@H](CO)[C@@H](O)[C@H](O)[C@H]1O)[C@H](O)[C@@H](O)CO | > 4 mM (inactive)
O=C(NCCO)c1ccccc1I | > 4 mM (inactive)
O=C(NCc1cccs1)c1nn2cccnc2c1Cl | > 4 mM (inactive)
O=C(Nc1ccc(N2CCOCC2)cc1)c1cnsn1 | > 4 mM (inactive)
Nc1nc(=S)n2c(n1)oc1ccccc12 | > 4 mM (inactive)
Cc1cc(C(=O)N2CCCCCC2)cs1 | > 4 mM (inactive)
Oc1ccccc1-c1cc(C(F)(F)F)[nH]n1 | > 4 mM (inactive)
COc1ccc(-c2ccc(OC)cc2C(=O)O)cc1 | > 4 mM (inactive)
O=C(O)CSCc1c(F)cccc1Cl | > 4 mM (inactive)
CC(=O)NC1=NN(c2ccccc2)C(=O)C1 | > 4 mM (inactive)
NC(=O)CSc1nnc2ccc(-c3ccccn3)nn12 | > 4 mM (inactive)
CC(=O)c1ccc(NC(=S)N2CCC(O)CC2)cc1 | > 4 mM (inactive)
CC(NC(=O)c1ccco1)c1ccc2c(c1)OCCO2 (configuration not stated) | > 4 mM (inactive)

SMILES | Kd
O=C1C=CC(=O)c2c(O)cccc21 | > 4 mM (inactive)
CN1CCC(NC(=S)NC2CC2)CC1 | > 4 mM (inactive)
Cn1cccc1C(=S)N1CCOCC1 | > 4 mM (inactive)
CCN1CCN(CCCNc2ncnc3nc[nH]c23)CC1 | > 4 mM (inactive)
COc1ccc2nc(N)sc2c1 | > 4 mM (inactive)
CC(=O)N=c1cccc(NC(C)=O)n1O | > 4 mM (inactive)
COc1cc(NC(=O)c2ccccc2)c(C)cc1N | > 4 mM (inactive)
O=C1Nc2ccccc2C12OCCO2 | > 4 mM (inactive)
O=C(CN1CCOCC1)Nc1nccs1 | > 4 mM (inactive)
CC(=O)Nc1cnn(-c2ccccc2)c(=O)c1Cl | > 4 mM (inactive)
COc1cccc(Oc2ccc(N)cn2)c1 | > 4 mM (inactive)
Cc1nnsc1C(=O)N(C)c1ccccc1 | > 4 mM (inactive)
NC(=O)C1CCN(c2nccc(C(F)(F)F)n2)CC1 | > 4 mM (inactive)
COn1c(=O)c(-c2ccco2)[n+]([O-])c2ccccc21 | > 4 mM (inactive)
Cc1cccc(NC(=O)NC(N)=O)c1 | > 4 mM (inactive)
CCCS(=O)(=O)N1CCN(c2ccccn2)CC1 | > 4 mM (inactive)
CC1(C)C2CC[C@]3(C)C(C(=O)C=C4[C@H]5C[C@@](C)(C(=O)O)CC[C@]5(C)CC[C@]43C)[C@@]2(C)CC[C@@H]1O (some centres not stated) | > 4 mM (inactive)
O=C(O)C1CC(=O)N(Cc2cccs2)C1 (configuration not stated) | > 4 mM (inactive)
c1ccn(Cc2ccncc2)c1 | > 4 mM (inactive)
COc1ccccc1N1C(=N)SCC1=O | > 4 mM (inactive)
CN(C)Cc1nc2c([nH]1)c(=O)[nH]c(=O)n2C | > 4 mM (inactive)
O=c1n(-c2ccccc2)c(=O)n2n1CCCC2 | > 4 mM (inactive)
O=c1ccc2c([nH]1)CCCC2 | > 4 mM (inactive)
O=C(O)c1onc2ccccc12 | > 4 mM (inactive)
COc1ccc(Cl)c(S(=O)(=O)N2CCCC2)c1 | > 4 mM (inactive)

SMILES | Kd
Nc1ccc(S(=O)(=O)Nc2nccs2)cc1 | > 4 mM (inactive)
Cn1c(SCCC(=O)O)nnc1-c1cccnc1 | > 4 mM (inactive)
OCCNC(=S)Nc1ccccc1 | > 4 mM (inactive)
CCC[C@@H]1CCCCN1 | > 4 mM (inactive)
O=C1CSC(=S)N1Cc1cccnc1 | > 4 mM (inactive)
Cc1nn(C)c(N2CCOCC2)c1N | > 4 mM (inactive)
CNC(=O)C(=O)NCc1ccc(C)cc1 | > 4 mM (inactive)
CCc1nnc(NC(C)=O)s1 | > 4 mM (inactive)
[O-][n+]1onc2c1CCc1c-2nc(-c2ccccc2)n1O | > 4 mM (inactive)
Cn1c(CO)nc2ccccc21 | > 4 mM (inactive)
NCCNC(=S)Nc1ccccc1 | > 4 mM (inactive)
C/C=C1\[C@H]2C=C(C)C[C@]1(N)c1ccc(=O)[nH]c1C2 | > 4 mM (inactive)
CN(C)C(=O)Oc1cccc(-c2nnco2)c1 | > 4 mM (inactive)
O=C(NCc1ccccc1)c1ccc[n+]([O-])c1 | > 4 mM (inactive)
COC(=O)CSc1nc(N)cc(=O)[nH]1 | > 4 mM (inactive)
Nc1nc2ccccc2n1CCN1CCCC1 | > 4 mM (inactive)
CC(=O)Nc1c(Cl)cnn(-c2ccccc2)c1=O | > 4 mM (inactive)
O=C(O)CC1NCCNC1=O (configuration not stated) | > 4 mM (inactive)
S=c1oc(-c2ccncc2)nn1CCc1ccncc1 | > 4 mM (inactive)
CN(C)/C=N/S(=O)(=O)c1ccccc1 | > 4 mM (inactive)
CC(C)c1ccc2c(c1)CCC1C(C)(C(N)=O)CCCC21C (configuration not stated) | > 4 mM (inactive)
S=c1nc(Cc2ccccc2)[nH][nH]1 | > 4 mM (inactive)
